Data reported in US20240082219A1, “METHODS FOR AMELIORATING AND PREVENTING AGE-RELATED MUSCLE DEGENERATION” (NANJING NUTRABUILDING BIO-TECH CO., LTD., priority 2021, published 2024).

How the values were obtained:
[1] = test system: C57BL/6J mice at 20 months of age (Old Mice, OM); assay: Forelimb grip strength (grip strength meter); type: in vivo; conditions: once daily by gavage for 4 months, vs OM group
Procedure: (§1) The healthy and male C57BL/6J mice at 20 months of age (Old Mice, OM) and at 2 months of age (Young Mice, YM) were maintained under the barrier conditions in a temperature-controlled environment and fed a commercial mouse chow. They were divided into the following five groups: (1) non-supplement young mice group (YM, n=5); (2) non-supplement old mice group (OM, n=5); (3)L-Ergothioneine supplement group with low dosage (OM+5 mg/kg/day, n=5); (4) L-Ergothioneine supplement group with moderate dosage (OM+15 mg/kg/day, n=5); and(5) L-Ergothioneine supplement group with high dosage (OM+45 mg/kg/day, n=5). All mice were administered L-Ergothioneine for once daily by gavage in normal saline solution for 4 months. Mice were euthanized by CO2 inhalation followed by cervical dislocation at the end of study and skeletal muscles were excised for an immediate isolation of mitochondria. Forelimb grip strength were analyzed using the rip strength meter (Bioseb, BIO-GS3) with mouse-specific wire grid (100×80 mm, angled 90° (vertical)), once per month during the study and at the end of the study. […] Statistical significance was determined using one-way ANOVA followed by Tukey's post hoc test (N=5, *P<0.05, **P<0.01, ***P<0.001 vs OM Group).

[2] = Body weight and body composition (lean mass ratio) of old mice; type: in vivo, C57BL/6J mice; conditions: old mice, 5, 15 or 45 mg/kg/day by gavage for 4 months, vs OM group
Procedure: The healthy and male C57BL/6J mice at 20 months of age (Old Mice, OM) and at 2 months of age (Young Mice, YM) were maintained under the barrier conditions in a temperature-controlled environment and fed a commercial mouse chow. They were divided into the following five groups: (1) non-supplement young mice group (YM, n=5); (2) non-supplement old mice group (OM, n=5); (3)L-Ergothioneine supplement group with low dosage (OM+5 mg/kg/day, n=5); (4) L-Ergothioneine supplement group with moderate dosage (OM+15 mg/kg/day, n=5); and(5) L-Ergothioneine supplement group with high dosage (OM+45 mg/kg/day, n=5). All mice were administered L-Ergothioneine for once daily by gavage in normal saline solution for 4 months. Mice were euthanized by CO2 inhalation followed by cervical dislocation at the end of study and skeletal muscles were excised for an immediate isolation of mitochondria. The bodyweight of C57BL/6 mice was recorded before treatment, once per week during the study, and at the end of the study. Body composition (lean mass ratio) of mice was analyzed using the (NM42-[…]-1 system, Suzhou Niumag) before treatment, once per month during the study, and at the end of the study. […] Statistical significance was determined using one-way ANOVA followed by Tukey's post hoc test (N=5, *P<0.05, **P<0.01, vs OM Group).

[3] = test system: C57BL/6J mice at 20 months of age (Old Mice, OM); assay: Motor coordination on rotating rod (Time to Fall); type: in vivo; conditions: once daily by gavage for 4 months, vs OM group
Procedure: The healthy and male C57BL/6J mice at 20 months of age (Old Mice, OM) and at 2 months of age (Young Mice, YM) were maintained under the barrier conditions in a temperature-controlled environment and fed a commercial mouse chow. They were divided into the following five groups: (1) non-supplement young mice group (YM, n=5); (2) non-supplement old mice group (OM, n=5); (3)L-Ergothioneine supplement group with low dosage (OM+5 mg/kg/day, n=5); (4) L-Ergothioneine supplement group with moderate dosage (OM+15 mg/kg/day, n=5); and(5) L-Ergothioneine supplement group with high dosage (OM+45 mg/kg/day, n=5). All mice were administered L-Ergothioneine for once daily by gavage in normal saline solution for 4 months. Mice were euthanized by CO2 inhalation followed by cervical dislocation at the end of study and skeletal muscles were excised for an immediate isolation of mitochondria. Motor coordination deficits were performed by placing the mouse on a rotating rod (Beijing Zhishuduobao, DB093) and measuring how long it takes before mice fall off the rod (Time to Fall (s)). […] Statistical significance was determined using one-way ANOVA followed by Tukey's post hoc test (N=5, *P<0.05, **P<0.01, vs OM Group).

[4] = test system: skeletal muscles mitochondria; assay: ATP production, O2 consumption and P/O ratio in skeletal muscle mitochondria from treated mice; type: in vivo, C57BL/6J mice; conditions: isolated skeletal muscle mitochondria of old mice treated for 4 months, vs OM group
Procedure: as §1, with “mitochondria. Extracting skeletal muscles mitochondria from mice to measure ATP production and O2 consumption. ATP production was measured using a luciferase/luciferin based system. O2 consumption was measured using optical spectra. The all data” for “mitochondria. Forelimb grip strength”, “analyzed to identify” for “analyzed using”, “the L-Ergothioneine function for improving ATP production” for “the rip strength meter (Bioseb, BIO-GS3) with mouse-specific wire grid (100×80 mm, angled 90° (vertical)), once per month during the study”, “and O2 consumption.” for “and at the end of the study.”

[5] = test system: C57BL/6J mice at 20 months of age (Old Mice, OM); assay: Tissue weights of soleus and gastrocnemius muscle, age-induced muscle loss; type: in vivo; conditions: after 4 months administration by gavage, vs OM group
Procedure: The healthy and male C57BL/6J mice at 20 months of age (Old Mice, OM) and at 2 months of age (Young Mice, YM) were maintained under the barrier conditions in a temperature-controlled environment and fed a commercial mouse chow. They were divided into the following five groups: (1) non-supplement young mice group (YM, n=5); (2) non-supplement old mice group (OM, n=5); (3)L-Ergothioneine supplement group with low dosage (OM+5 mg/kg/day, n=5); (4) L-Ergothioneine supplement group with moderate dosage (OM+15 mg/kg/day, n=5); and(5) L-Ergothioneine supplement group with high dosage (OM+45 mg/kg/day, n=5). All mice were administered L-Ergothioneine for once daily by gavage in normal saline solution for 4 months. Mice were euthanized by CO2 inhalation followed by cervical dislocation at the end of study and skeletal muscles were excised for an immediate isolation of mitochondria. FIGS. 1A-1D show the test results related to effect of EGT treatment on age-induced muscle loss in mice monthly, particularly regarding body weight measurement (FIG. 1A), lean mass ratio (FIG. 1B), tissue weights of soleus muscle (FIG. 1C), and tissue weights of gastrocnemius muscle (FIG. 1D). Statistical significance was determined using one-way ANOVA followed by Tukey's post hoc test (N=5, *P<0.05, **P<0.01, vs OM Group).

SMILES: C[N+](C)(C)[C@@H](Cc1c[nH]c(=S)[nH]1)C(=O)[O-] [L-Ergothioneine]
- forelimb grip strength [1]: ameliorating and preventing the loss of muscle grip strength
- body composition (lean mass ratio) [2]: no significant difference
- body weight [2]: no significant difference
- time on rotating rod (Time to Fall) [3]: prolong time of maintain on a rotating rod
- ATP synthesis [4]: increase of ATP synthesis
- P/O ratio (ATP produced per O2 consumed) [4]: increase of ATP synthesis and P/O ratio
- weight of the gastrocnemius muscle [5]: prevented this reduction
- weight of the soleus muscle [5]: prevented this reduction
